Consider six compounds from patent US6610883B1, “Compounds having selective activity for retinoid X receptors, and means for modulation of processes mediated by retinoid X receptors” (Ligand Pharmaceuticals, Inc., priority 1992, dated 2003).

One series concerns RAR. Description: apoA1 "A" site reporter co-transfection in HepG-2 cells, RAR.
The next series has as its system RXR. Nature of the series: apoA1 "A" site reporter co-transfection in HepG-2 cells, RXR. The class given is cell-based.
In series [1] the test system is RAR subfamily (RARα, RARβ, RARγ). Nature of the series: Co-transfection assay, dose response profiles, RAR subfamily. The class given is cell-based. The settings on record: in words. From the text:
(§1) The co-transfection assay provides a mechanism to evaluate the ability of a compound to modulate the transcription response initiated by an intracellular receptor. […] Berger, et al., J. Steroid Biochem Molec.
(§2) Briefly, the co-transfection assay involves the introduction of two plasmids by transient transfection into a retinoid receptor-negative mammalian cell background. The first plasmid contains a retinoid receptor cDNA and directs constitutive expression of the encoded receptor. The second plasmid contains a cDNA that encodes for a readily quantifiable protein, e.g., firefly luciferase or chloramphenicol acetyl transferase (CAT), under control of a promoter containing a retinoid acid response element, which confers retinoid dependence on the transcription of the reporter. In this co-transfection assay, all retinoid receptors respond to all-trans-retinoic acid in a similar fashion. This assay can be used to accurately measure efficacy and potency of retinoic acid and synthetic retinoids as ligands that interact with the individual retinoid receptor subtypes.
(§3) Accordingly, synthetic retinoid compounds of the current invention were evaluated for their interaction with retinoid receptor subtypes using the co-transfection assay in which CV-1 cells were co-transfected with one of the retinoid receptor subtypes, a reporter construct, and an internal control to allow normalization of the response for transfection efficiency. The following example is illustrative.
Co-transfection Assay In CV-1 Cells: A monkey kidney cell line, CV-1, was used in the cis-trans assay. Cells were transfected with two plasmids. […] The cis-vector contains an easily assayable gene product, in this case the firefly luciferase, coupled to a retinoid-responsive promoter, i.e., an RARE or RXRE. Addition of retinoic acid or an appropriate synthetic retinoid results in the formation of a retinoid-RAR or -RXR complex that activates the expression of luciferase gene, causing light to be emitted from cell extracts. […]

The test system of a further series is Rhino mice utriculi. Description: Comedolytic test on Rhino mice. The settings on record: 0.1% solution, topical.
A further series deals with skin of Rhino mice. Description: Skin irritation in Rhino mice. The class given is in vivo. To be noted: compared with 9-cis- or all-trans-retinoic acid.
In series [2] the test system is RXR subfamily (RXRα, RXRβ, RXRγ).
Description: as §1
as §2, with “This assay can be used to accurately measure efficacy and potency of retinoic acid and synthetic retinoids as ligands that interact with the individual retinoid receptor subtypes.” left out
Accordingly, synthetic retinoid compounds of the current invention were evaluated for their interaction with retinoid receptor subtypes using the co-transfection assay in which CV-1 cells were co-transfected with one of the retinoid receptor subtypes, a reporter construct, and an internal control to allow normalization of the response for transfection efficiency. […]

In another series the target is T1, RXRβ (Mus musculus, UniProt P28704).
T1 construct: expressed in transfected cells; host or cells: CV-1 (monkey kidney)
T1 sequence (P28704 1-520): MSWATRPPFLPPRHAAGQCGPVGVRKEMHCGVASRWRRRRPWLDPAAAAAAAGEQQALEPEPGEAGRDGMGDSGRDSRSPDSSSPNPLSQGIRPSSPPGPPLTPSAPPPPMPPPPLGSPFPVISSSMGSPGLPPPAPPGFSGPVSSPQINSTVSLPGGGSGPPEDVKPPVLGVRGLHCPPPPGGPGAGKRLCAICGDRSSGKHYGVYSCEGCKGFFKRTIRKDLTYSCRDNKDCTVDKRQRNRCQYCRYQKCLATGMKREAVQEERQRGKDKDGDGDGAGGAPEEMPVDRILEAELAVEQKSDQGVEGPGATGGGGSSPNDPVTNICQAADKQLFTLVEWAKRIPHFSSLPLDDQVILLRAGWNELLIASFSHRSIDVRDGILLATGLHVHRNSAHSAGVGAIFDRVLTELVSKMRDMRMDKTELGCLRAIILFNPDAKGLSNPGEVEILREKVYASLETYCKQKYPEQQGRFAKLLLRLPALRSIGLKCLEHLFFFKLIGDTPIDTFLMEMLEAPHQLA
Description: Co-transfection (cis-trans) assay in CV-1 cells, RXRβ. The series is classed as cell-based. To be noted: RXRβ.
Description: as §1, §2, §3
(§4) Retinoids: All-tans-retinoic acid (RA) and 13-cis-retinoic acid (13-cis-RA) were obtained from Sigma. […] Retinoids were dissolved in dimethylsulfoxide for use in the transcriptional activation assays.
(§5) Co-transfection Assay In CV-1 Cells: A monkey kidney cell line, CV-1, was used in the cis-trans assay. Cells were transfected with two plasmids. […] The cis-vector contains an easily assayable gene product, in this case the firefly luciferase, coupled to a retinoid-responsive promoter, i.e., an RARE or RXRE. Addition of retinoic acid or an appropriate synthetic retinoid results in the formation of a retinoid-RAR or -RXR complex that activates the expression of luciferase gene, causing light to be emitted from cell extracts. The level of luciferase activity is directly proportional to the effectiveness of the retinoid-receptor complex in activating gene expression. This sensitive and reproducible co-transfection approach permits the identification of retinoids that interact with the different receptor isoforms.
(§6) Cells were cultured in DMEM supplemented with 10% charcoal resin-stripped fetal bovine serum, and experiments were conducted in 96-well plates. […] Cells were transfected for 6 h and then washed to remove the precipitate. The cells were then incubated for 36 h with or without retinoid. After the transfection, all subsequent steps were performed on a Beckman Biomek Automated Workstation. […] All determinations were performed in triplicate in two independent experiments and were normalized for transfection efficiency by using β-galactosidase as the internal control. […] Efficacy values less than 5% are not statistically different than the 0% background.

Series [3] concerns myeloma cell line (RPMI 8226). Description: Thymidine incorporation in myeloma cell line RPMI 8226. The series is classed as cell-based. The text has this: This assay examines the incorporation of radiolabeled thymidine into DNA, and by determining the ability of a compound to inhibit thymidine incorporation into DNA, provides a measure of cell proliferation.
In general terms: Incorporation of labelled thymidine or its analogues reports DNA synthesis.

The target in the next series is T2, RXRα (Homo sapiens, UniProt P19793).
T2 construct: The first plasmid contains a retinoid receptor cDNA and directs constitutive expression of the encoded receptor; expressed in transfected cells; host or cells: CV-1 (monkey kidney)
T2 sequence (P19793 1-462): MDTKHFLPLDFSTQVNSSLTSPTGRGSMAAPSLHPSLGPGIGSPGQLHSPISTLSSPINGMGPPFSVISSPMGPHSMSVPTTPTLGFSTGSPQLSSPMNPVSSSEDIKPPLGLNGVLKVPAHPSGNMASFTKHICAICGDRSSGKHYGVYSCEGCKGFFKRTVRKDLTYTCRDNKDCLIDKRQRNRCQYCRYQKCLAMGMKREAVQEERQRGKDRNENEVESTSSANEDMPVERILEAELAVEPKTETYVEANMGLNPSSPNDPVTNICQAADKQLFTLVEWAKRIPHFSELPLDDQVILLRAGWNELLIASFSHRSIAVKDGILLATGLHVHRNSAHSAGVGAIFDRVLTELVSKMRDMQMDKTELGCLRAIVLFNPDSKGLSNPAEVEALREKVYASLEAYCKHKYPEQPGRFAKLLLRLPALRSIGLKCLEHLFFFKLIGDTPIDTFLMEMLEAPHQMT
Nature of the series: Co-transfection (cis-trans) assay in CV-1 cells, RXRα. The class given is cell-based. Set-up: Emax: dose or concentration left out as unconfirmed.
Description: as §1, §2, §3, §4, §5, §6

The target of another series is T3, RXRγ (Mus musculus, UniProt P28705).
T3 construct: expressed in transfected cells; host or cells: CV-1 (monkey kidney)
T3 sequence (P28705 1-463): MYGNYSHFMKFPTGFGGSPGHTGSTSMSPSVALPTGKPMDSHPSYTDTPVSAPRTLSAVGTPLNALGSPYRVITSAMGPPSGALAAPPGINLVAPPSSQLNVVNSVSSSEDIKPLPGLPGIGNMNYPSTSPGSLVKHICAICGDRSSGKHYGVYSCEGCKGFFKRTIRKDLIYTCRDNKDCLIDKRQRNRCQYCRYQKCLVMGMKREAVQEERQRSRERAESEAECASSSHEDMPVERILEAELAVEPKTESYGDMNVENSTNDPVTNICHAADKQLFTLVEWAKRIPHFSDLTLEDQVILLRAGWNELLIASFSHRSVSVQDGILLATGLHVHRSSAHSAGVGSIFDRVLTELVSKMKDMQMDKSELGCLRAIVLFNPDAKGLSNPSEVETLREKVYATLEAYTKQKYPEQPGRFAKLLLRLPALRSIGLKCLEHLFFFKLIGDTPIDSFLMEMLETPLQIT
Description: Co-transfection (cis-trans) assay in CV-1 cells, RXRγ. The class given is cell-based.
Description: as §1, §2, §3, §4, §5, §6

Series [4] has as its system HL60 cells.
The test system of series [5] is HL60 cells. Nature of the series: HL60 differentiation (NBT reduction). The class given is cell-based. To be noted: Homo sapiens, HL-60; HL60, NBT reduction; read-out: EC50 for mediated differentiation.
The test system of the next series is RXRα/PPAR. Description: Co-transfection of RXRα and PPAR in HepG2 cells. The class given is cell-based. From the text:
Specifically, peroxisome proliferator-activated receptor (PPAR) is a member of the intracellular receptor super family that plays a role in the modulation of lipid homeostasis. […] These agents, called peroxisome proliferators, have been used in man as hypolipidemic agents.

Consider `Cc1cc2c(cc1C(=O)c1ccc(C(=O)O)cc1)C(C)(C)CCC2(C)C` [3-methyl-TTNCB, 4-[(3,5,5,8,8-pentamethyl-5,6,7,8-tetrahydro-2-naphthyl)carbonyl]benzoic acid], for which, in the series with RAR, the “Reporter activation via apoA1 "A" site with RAR” value was “no effect when RAR was used in the transfection”. The “Reporter activation via apoA1 "A" site with RXR” value in the series with RXR is “activation in the system”. For the same compound, the “Activation of members of the RAR subfamily” value in series [1] is “no significant activity for members of the RAR subfamily”. Also, the “Inhibition of the utriculi diameter” value with Rhino mice utriculi is reported as “approximately 50%”. Also, the Skin irritation entry with skin of Rhino mice is listed as “less irritating to the skin of Rhino mice than 9-cis- or all-trans-retinoic acid”.
For the compound `CC1=C(/C=C/C(C)=C\C=C\C(C)=C\C(=O)O)C(C)(C)CCC1` [9-cis-retinoic acid], the “Activation of members of the RXR subfamily” value in series [2] was “activate members of both the RAR and RXR subfamilies”. Also, the “Activation of members of the RAR subfamily” value in series [1] is “activate members of both the RAR and RXR subfamilies”. The compound further came in with an Efficacy on RXRβ (maximal response relative to all-trans-retinoic acid at 10^−5 M) of 140%.
In general, melting point refers to the temperature of the solid-liquid transition. The compound `C=C(c1ccc2c(c1)C(C)(C)CCC2(C)C)c1ccc(C(=O)O)cn1` [Compound 56, 2-[1-(5,5,8,8-tetramethyl-5,6,7,8-tetrahydro-2-naphthyl)ethenyl]pyridine-5-carboxylic acid] showed a melting point of 173 °C.
The term inhibition denotes the percentage by which the read-out fell short of the control. `C/C(=C\c1ccc(C(=O)O)cc1)c1ccc2c(c1)C(C)(C)CCC2(C)C` [TTNPB, reference compound] registered an inhibition at 10 pM in [3] (Homo sapiens, RPMI-8226) of 9%. Also, the IC50 in series [3] (Homo sapiens, RPMI 8226, FIG. 11, read-out: IC50, inhibition of thymidine incorporation) was around 0.05 nM. The “Concentration with essentially no effect on cell proliferation” value in [3] (RPMI 8226, FIG. 11) is recorded as “less than 10^−11 M”. Moreover, the Emax at RXRα (CV-1, read-out: Efficacy) is below 5%. Further, the EC50 on RXRα (RXRα, CV-1 cells, luciferase reporter, 36 h, read-out: Potency) was above 10 µM; on RXRβ (CV-1 cells, luciferase reporter, 36 h, read-out: Potency) it was above 10 µM; at RXRγ, above 10 µM. Further, the Emax at 10 µM was below 5% at RXRβ (CV-1, maximal response relative to all-trans-retinoic acid at 10^−5 M, read-out: Efficacy) and below 5% on RXRγ (CV-1, RXRγ, maximal response relative to all-trans-retinoic acid at 10^−5 M, read-out: Efficacy).
For `CC1=C(/C=C/C(C)=C/C=C/C(C)=C/C(=O)O)C(C)(C)CCC1` [all-trans-retinoic acid], the “Activation of members of the RXR subfamily” value in [2] is “activate members of both the RAR and RXR subfamilies”. The “Activation of members of the RAR subfamily” value in series [1] was “activate members of both the RAR and RXR subfamilies”. The “Effect on cellular proliferation (thymidine incorporation)” value in the series on HL60 cells [4] is reported as “inhibits thymidine incorporation”. Besides, the EC50 in the series on HL60 cells [5] came to 2000 nM.
Regarding `CC(C)(Oc1ccc(Cl)cc1)C(=O)O` [clofibric Acid, clofibric acid, reference compound], in the series with RXRα/PPAR, the “Normalized Response (%)” value was determined as 100%.
